This note sets out measurements from patent publication US11524966B1 (Valo Early Discovery, Inc., priority 2017, dated 2022).

In this assay the target is T1, USP25 (USP25-His6, Boston Biochem E-546) (Homo sapiens, UniProt Q9UHP3).
T1 construct: His6; purchased Boston Biochem E-546
T1 sequence (Q9UHP3 1-1055): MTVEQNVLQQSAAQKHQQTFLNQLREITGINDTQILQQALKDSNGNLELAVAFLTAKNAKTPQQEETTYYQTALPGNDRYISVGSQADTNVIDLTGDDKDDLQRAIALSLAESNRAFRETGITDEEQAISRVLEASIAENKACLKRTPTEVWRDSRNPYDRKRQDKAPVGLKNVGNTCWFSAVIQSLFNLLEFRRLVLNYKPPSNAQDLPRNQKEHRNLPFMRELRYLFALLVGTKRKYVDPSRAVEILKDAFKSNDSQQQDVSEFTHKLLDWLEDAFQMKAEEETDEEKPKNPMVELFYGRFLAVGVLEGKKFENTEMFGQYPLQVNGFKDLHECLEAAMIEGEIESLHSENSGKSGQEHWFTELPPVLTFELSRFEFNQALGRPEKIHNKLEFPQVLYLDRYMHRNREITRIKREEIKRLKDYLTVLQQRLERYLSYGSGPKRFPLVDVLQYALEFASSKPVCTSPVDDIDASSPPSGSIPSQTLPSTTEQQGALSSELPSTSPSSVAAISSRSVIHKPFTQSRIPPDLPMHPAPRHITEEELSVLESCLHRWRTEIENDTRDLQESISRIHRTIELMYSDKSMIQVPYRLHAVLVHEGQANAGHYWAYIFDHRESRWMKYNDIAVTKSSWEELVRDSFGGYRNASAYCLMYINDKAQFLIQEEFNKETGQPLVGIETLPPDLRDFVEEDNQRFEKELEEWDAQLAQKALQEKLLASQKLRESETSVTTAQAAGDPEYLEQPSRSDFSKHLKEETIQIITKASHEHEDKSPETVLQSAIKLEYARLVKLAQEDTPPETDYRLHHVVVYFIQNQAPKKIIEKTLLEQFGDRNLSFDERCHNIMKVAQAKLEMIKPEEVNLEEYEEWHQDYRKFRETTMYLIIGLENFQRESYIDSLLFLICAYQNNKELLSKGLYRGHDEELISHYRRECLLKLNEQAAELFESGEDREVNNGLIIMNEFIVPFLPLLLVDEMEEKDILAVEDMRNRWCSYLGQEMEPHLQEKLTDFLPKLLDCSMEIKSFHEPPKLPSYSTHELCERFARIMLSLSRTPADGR
Kind of assay: Ubiquitin-Rhodamine 110 Assay for USP25 Activity, Example A-2. In kind it is biochemical. The following applies: Ubiquitin-Rhodamine 110 assay, Example A-2; read-out: USP25 A-2 IC50 range. An outline of the steps:
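Read-out: Rh110 fluorescence (ex 485, em 535 nm) after 45 min RT turnover of 25 nM Ub-Rh110 by 75 pM USP25-His6, quenched with 10 mM citric acid. Compounds at 25 μM–1.3 nM, preincubated 30 min with enzyme. IC50 from 4-parameter logistic fit.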
As for `Cc1ccc2c(N)c(C(=O)N[C@H]3COc4cc(N5CC6CNCC(C5)O6)c(F)c(F)c4C3)sc2n1` [Example 79, N-((3R)-7-(9-oxa-3,7-diazabicyclo[3.3.1]nonan-3-yl)-5,6-difluorochroman-3-yl)-3-amino-6-methylthieno[2,3-b]pyridine-2-carboxamide], the IC50 was 1 to 50 nM.

Regarding `Cc1ccc2c(N)c(C(=O)N[C@H]3CCc4nc(N5CCNCC5)c(F)cc4C3)sc2n1` (single isomer, unassigned) [Example 30-1], the IC50 fell in the range of 200 to 2000 nM.

For the compound `CCn1ccc2cc(C(=O)N[C@H]3COc4c(F)c([C@@H]5CCNC[C@@H]5O)cc(F)c4C3)nnc21` [Example 84, N-((R)-5,8-difluoro-7-((3R,4S)-3-hydroxypiperidin-4-yl)chroman-3-yl)-7-ethyl-7H-pyrrolo[2,3-c]pyridazine-3-carboxamide], the IC50 is greater than 2000 nM.

Consider `Cc1ccc2c(N)c(C(=O)N[C@@H]3COc4cc(N5CCNCC5)cc(Cl)c4C3)sc2n1` [Example 49, (S)-3-amino-N-(5-chloro-7-(piperazin-1-yl)chroman-3-yl)-6-methylthieno[2,3-b]pyridine-2-carboxamide], for which the IC50 is greater than 2000 nM.

Consider `O=C(N[C@H]1COc2cc(N3CCNCC3)ccc2C1)c1cnc2c(ccn2Cc2ccccc2)c1` [Example 59, (R)-1-benzyl-N-(7-(piperazin-1-yl)chroman-3-yl)-1H-pyrrolo[2,3-b]pyridine-5-carboxamide], for which the IC50 lay within 1 to 50 nM.

Take `Cc1ccc2c(N)c(C(=O)N[C@H]3COc4cc(N5CCNCC5)cc(Cl)c4C3)sc2n1` [Example 48, (R)-3-amino-N-(5-chloro-7-(piperazin-1-yl)chroman-3-yl)-6-methylthieno[2,3-b]pyridine-2-carboxamide]: the IC50 fell in the range of 50 to 200 nM.

Regarding `Cc1ccc2c(N)c(C(=O)N[C@H]3CCc4nc(N5CCNCC5)cc(F)c4C3)sc2n1` [Example 23-17, 3-amino-N-[(6S)-4-fluoro-2-(piperazin-1-yl)-5,6,7,8-tetrahydroquinolin-6-yl]-6-methylthieno[2,3-b]pyridine-2-carboxamide], the IC50 fell in the range of 200 to 2000 nM.

On to `Cc1ccc2c(N)c(C(=O)N[C@H]3COc4cc(N5C[C@@H]6CCNC[C@@H]65)ccc4C3)sc2n1` (single isomer, unassigned) [Example 33-3], for which the concentration for half-maximal inhibition (IC50) was in the range of 50 to 200 nM.

For `C[C@@H](Nc1ccc(C(=O)N[C@H]2COc3cc(N4CCNCC4)ccc3C2)cn1)c1ccccc1` [Example 54, 6-(((R)-1-phenylethyl)amino)-N-((R)-7-(piperazin-1-yl)chroman-3-yl)nicotinamide], the IC50 was greater than 2000 nM.

`Cc1cnc2c(N)c(C(=O)N[C@H]3COc4cc(N5CCNCC5)c(C#N)c(F)c4C3)sc2n1` [Example 67, (R)-7-amino-N-(6-cyano-5-fluoro-7-(piperazin-1-yl)chroman-3-yl)-3-methylthieno[2,3-b]pyrazine-6-carboxamide]: the IC50 lay within 50 to 200 nM.

As for `Cc1ccc2c(N)c(C(=O)N[C@@H]3Cc4ccc(N5CCNCC5)nc4C4(CC4)C3)sc2n1` (single isomer, unassigned) [Example 31-3, 3-amino-6-methyl-N-[(6′S)-2-(piperazin-1-yl)-6′,7′-dihydro-5′H-spiro[cyclopropane-1,8′-quinoline]-6′-yl]thieno[2,3-b]pyridine-2-carboxamide], the IC50 was greater than 2000 nM.

As for `Cc1ccc2c(N)c(C(=O)N[C@H]3COc4cc(N5C[C@H]6CCNC[C@H]65)ccc4C3)sc2n1` (single isomer, unassigned) [Example 33-4], the IC50 was in the range of 200 to 2000 nM.

On to `CO[C@@H]1CN(c2ccc3c(c2F)OC[C@H](NC(=O)c2sc4nc(C)ccc4c2N)C3)C[C@H]1N` [Example 91, 3-amino-N-[(3R )-7-[(3R,4R)-3-amino-4-methoxypyrrolidin-1-yl]-8-fluoro-3,4-dihydro-2H-1-benzopyran-3-yl]-6-methylthieno[2,3-b]pyridine-2-carboxamide], for which the IC50 is 200 to 2000 nM.

`Cc1ccc2c(N)c(C(=O)N[C@H]3COc4cc([C@H]5CCNC[C@H]5F)ccc4C3)sc2n1` [Example 82, 3-amino-N-((R)-7-((3S,4R)-3-fluoropiperidin-4-yl)chroman-3-yl)-6-methylthieno[2,3-b]pyridine-2-carboxamide]: the half-maximal inhibitory concentration (IC50) was in the range of 1 to 50 nM.

Consider `Cc1nc2sc(C(=O)N[C@H]3COc4cc(N5CCNCC5)ncc4C3)c(N)c2cc1F` [Example 72, (R)-3-amino-5-fluoro-6-methyl-N-(7-(piperazin-1-yl)-3,4-dihydro-2H-pyrano[3,2-c]pyridin-3-yl)thieno[2,3-b]pyridine-2-carboxamide], for which the IC50 fell in the range of 200 to 2000 nM.

Regarding `Cc1ccc2c(N)c(C(=O)N[C@H]3COc4cc(N5C[C@@H]6CC[C@H]5CN6)ncc4C3)sc2n1` [Example 75, N-((R)-7-((1S, 4S)-2 5-diazabicyclo[2.2.2]octan-2-yl)-3,4-dihydro-2H-pyrano[3,2-c]pyridin-3-yl)-3-amino-6-methylthieno[2,3-b]pyridine-2-carboxamide], the IC50 lay in the range of 1 to 50 nM.

Consider `Cc1ccc2c(N)c(C(=O)N[C@H]3COc4cc([C@@H]5CCNC[C@@H]5O)ccc4C3)sc2n1` [Example 63, 3-amino-N-((R)-7-((3R,4S)-3-hydroxypiperidin-4-yl)chroman-3-yl)-6-methylthieno[2,3-b]pyridine-2-carboxamide], for which the IC50 lay in the range of 50 to 200 nM.

`Cc1nc2sc(C(=O)N[C@H]3CCc4nc(N5CCNCC5)ccc4C3)c(N)c2s1` [Example 23-9]: the IC50 was greater than 2000 nM.

Consider `CCc1cnc2sc(C(=O)N[C@H]3COc4cc(N5CCNCC5)ccc4C3)c(N)c2n1` [Example 36, (R)-7-amino-2-ethyl-N-(7-(piperazin-1-yl)chroman-3-yl)thieno[2,3-b]pyrazine-6-carboxamide], for which the concentration for half-maximal inhibition (IC50) lay in the range of 200 to 2000 nM.

With `Cc1nc2sc(C(=O)N[C@H]3COc4cc(N5CCNCC5)c(F)c(F)c4C3)c(N)c2s1` [Example 66, (R)-6-amino-N-(5,6-difluoro-7-(piperazin-1-yl)chroman-3-yl)-2-methylthieno[2,3-d]thiazole-5-carboxamide], the IC50 fell in the range of 200 to 2000 nM.

With `Cc1ccc2c(N)c(C(=O)N[C@@H]3CCc4nc(N5CCNCC5)c(F)cc4C3)sc2n1` (single isomer, unassigned) [Example 30-2], the IC50 was greater than 2000 nM.

Regarding `O=C(N[C@H]1COc2cc(N3CCNCC3)ccc2C1)c1cnc2c(ccn2C(F)F)c1` [Example 38, (R)-1-(difluoromethyl)-N-(7-(piperazin-1-yl)chroman-3-yl)-1H-pyrrolo[2,3-b]pyridine-5-carboxamide], the IC50 is greater than 2000 nM.

As for `Cc1nc2sc(C(=O)N[C@@H]3COc4cc(N5CC6CCC(C5)N6)c(F)cc4C3)c(N)c2s1` [Example 46, N-((3S)-7-(3 8-diazabicyclo[3.2.1]octan-3-yl)-6-fluorochroman-3-yl)-6-amino-2-methylthieno[2,3-d]thiazole-5-carboxamide], the concentration for half-maximal inhibition (IC50) was in the range of 200 to 2000 nM.

With `O=C(N[C@H]1COc2c(F)c(N3CC4CCC(C3)N4)cc(F)c2C1)c1cnc2c(c1)[C@@H]1C[C@@H]1CN2` [Example 89, (1aS, 7bR)-N-((3R)-7-(3 8-diazabicyclo[3.2.1]octan-3-yl)-5,8-difluorochroman-3-yl)-1a,2,3,7b-tetrahydro-1H-cyclopropa[c][1,8]naphthyridine-6-carboxamide], the IC50 lay within 50 to 200 nM.

`Cc1ccc2c(N)c(C(=O)N[C@H]3CCc4nc(N5CCNCC5)ccc4C3)sc2n1` (single isomer, unassigned) [Example 23-7]: the IC50 lay in the range of 200 to 2000 nM.

With `CO[C@@H]1CN(c2cc(F)c3c(c2F)OC[C@H](NC(=O)c2sc4nc(C)ccc4c2N)C3)C[C@H]1N` [Example 86], the IC50 fell in the range of 200 to 2000 nM.

In the case of `CCn1ccc2cc(C(=O)N[C@H]3COc4c(F)c([C@H]5CCNC[C@H]5O)cc(F)c4C3)nnc21` [Example 85, N-((R)-5,8-difluoro-7-((3S,4R)-3-hydroxypiperidin-4-yl)chroman-3-yl)-7-ethyl-7H-pyrrolo[2,3-c]pyridazine-3-carboxamide], the IC50 was greater than 2000 nM.

Turning to `CCc1cnc2sc(C(=O)N[C@@H]3COc4cc(N5CCNCC5)ccc4C3)c(N)c2n1` [Example 37, (S)-7-amino-2-ethyl-N-(7-(piperazin-1-yl)chroman-3-yl)thieno[2,3-b]pyrazine-6-carboxamide], the half-inhibitory concentration (IC50) was greater than 2000 nM.

For `Cc1ccc2c(N)c(C(=O)N[C@H]3CCc4nc(N5CCN[C@H](C)C5)ccc4C3)sc2n1` (single isomer, unassigned) [Example 23-16], the IC50 fell in the range of 200 to 2000 nM.

What is called IC50 is the point on the concentration scale where inhibition reaches its midpoint.
